Here are results for one molecule from article PMC10216581, “Homogeneous, Synthetic, Non-Saccharide Glycosaminoglycan Mimetics as Potent Inhibitors of Human Cathepsin G” (Biomolecules, 2023).

Each structure is given as a SMILES string. Where “and” joins values, the source holds several entries; their conditions need not be identical. Equal entries are not always repeated. Where two headings read alike, the source gives them in different places.

One experiment concerns the target T1, Human CatG (Homo sapiens, UniProt P08311).
T1 construct: purchased Elastin Products Company (Owensville, MO, USA)
T1 sequence (P08311 21-255): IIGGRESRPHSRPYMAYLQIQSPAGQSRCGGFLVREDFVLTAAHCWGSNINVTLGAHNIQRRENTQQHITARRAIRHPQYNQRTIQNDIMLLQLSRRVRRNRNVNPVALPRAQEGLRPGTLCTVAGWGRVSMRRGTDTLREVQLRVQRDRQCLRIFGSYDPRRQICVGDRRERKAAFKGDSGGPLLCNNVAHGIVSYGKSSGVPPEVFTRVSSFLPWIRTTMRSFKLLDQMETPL
Put plainly: Direct inhibition of CatG, chromogenic substrate (S-7388) hydrolysis assay, IC50 determination. The format is biochemical. As to conditions: 100 mM NaCl. The procedure:
A chromogenic substrate hydrolysis assay was used to determine the direct inhibition of CatG by the NSGMs, as previously reported. To each well of a 96-well microplate containing 88 µL of 20 mM tris buffer, containing 100 mM NaCl, 2.5 mM CaCl2, 0.1% PEG 8000, and 0.05% Tween 80, 4 µL of CatG (final concentration of 60 nM) and 5 µL of H2O or NSGM (final concentration of 0–100 µM) were added. After incubating for a period of 5 min, 3 µL of CatG substrate (S-7388, final concentration of 750 µM) was added, and the residual CatG activity was obtained from the initial rate of increase of absorbance at 405 nm. The relative residual activity of CatG for each of the NSGMs, at the various concentrations, was calculated from the ratio of CatG activity in the presence and absence of NSGMs. The dose dependence curve was plotted using a logistic equation (see below) in Sigmaplot version 12 to obtain the IC50 (potency), Hill slope (HS), and efficacy (ΔY). Here, Y is the ratio of residual CatG activity in the presence of NSGMs to that in their absence, YO and YM are the minimum and maximum values of fractional residual CatG activity, respectively, IC50 is the concentration of the NSGM that inhibits CatG activity by 50%, and HS is the Hill slope. ΔY = YM − YO. Y=YO+YM−YO/1+10^logI0−logIC50HS
Figure 4 Representative IC50 profiles for CatG inhibition by NSGMs. Direct inhibition of human CatG was measured using the chromogenic substrate hydrolysis assay at pH 7.4 and 37 °C. Solid lines represent analysis using the logistic dose–response relationship (Equation (1)) to obtain the IC50, ΔY%, and HS. Errors represent ± 1 S.E.

The test system of experiment [1] is human neutrophil elastase (HNE). On the set-up: method as in PMID 23735578. To be noted: previous studies; cited from earlier work.

On to `O=c1c(OS(=O)(=O)O)c(-c2ccc(OS(=O)(=O)O)c(OS(=O)(=O)O)c2)oc2cc(OS(=O)(=O)O)cc(OCc3ccc(COc4cc(OS(=O)(=O)O)cc5oc(-c6ccc(OS(=O)(=O)O)c(OS(=O)(=O)O)c6)c(OS(=O)(=O)O)c(=O)c45)cc3)c12` [NSGM 25], for which the IC50 (commonly the midpoint of a concentration-inhibition curve) is ~50 nM and 53 nM at Human CatG (pH 7.4, read-out: IC50 (potency)); 50 ± 10 nM on Human CatG (pH 7.4 tris buffer, 37 °C, 60 nM CatG, 750 µM S-7388, ± 1 S.E., read-out: IC50); about 230 nM in experiment [1]. Besides, the “HS (Hill slope)” value on Human CatG (Hill slope of dose-response fit, pH 7.4) was determined as 0.7 ± 0.1. Further, the “ΔY (efficacy)” value at Human CatG (ΔY = YM − YO of dose-response fit, pH 7.4) was 95 ± 7%.
